Measured values from patent US20260022142A1, “MACROCYCLIC IMMUNOMODULATORS” (Bristol-Myers Squibb Company, priority 2022, published 2026).
Bridge positions count the residues as written; N and C are the ends. Square brackets hold non-standard residues; d marks the D form. Peptide text beside a SMILES is read from it. * marks the point of attachment. Phe(4-CH2CH2COOH) = N[C@@H](Cc1ccc(CCC(=O)O)cc1)C(=O)O; Bip = N[C@@H](Cc1ccc(-c2ccccc2)cc1)C(=O)O; Phe(3-Me) = Cc1cccc(C[C@H](N)C(=O)O)c1; Cha = N[C@@H](CC1CCCCC1)C(=O)O; Cit = NC(=O)NCCC[C@H](N)C(=O)O; Carboxymethyl = O=C(O)C*; Orn = NCCC[C@H](N)C(=O)O; dNMeA = CN[C@H](C)C(=O)O; Aun = NCCCCCCCCCCC(=O)O; Dab = NCC[C@H](N)C(=O)O; Dap = NC[C@H](N)C(=O)O

Molecular target: T1, PD-1/PD-L1 interaction (PE-labeled human PD-L1-Ig binding to Jurkat cell line over-expressing human PD-1) (Homo sapiens, UniProt Q15116)
T1 construct: expressed in transfected cells; host or cells: Jurkat
Assay: Jurkat-PD-1 Cell Binding High-Content Screening Assay (CBA)
Type: cell-based
Settings: Jurkat cell line over-expressing human PD-1; PE-labeled PD-L1-Ig 20 nM final; read-out: Jurkat hPD1-PDL1 IC50
Procedure, shortened: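 Read-out is high-content imaging of cell-bound phycoerythrin-tagged PD-L1-Ig on fixed, Hoechst-counterstained Jurkat cells that over-express human PD-1. Compound exposure lasts 2 h at 37° C before the labeled ligand (20 nM final) is added for a further hour.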

T1 sequence (Q15116 25-288): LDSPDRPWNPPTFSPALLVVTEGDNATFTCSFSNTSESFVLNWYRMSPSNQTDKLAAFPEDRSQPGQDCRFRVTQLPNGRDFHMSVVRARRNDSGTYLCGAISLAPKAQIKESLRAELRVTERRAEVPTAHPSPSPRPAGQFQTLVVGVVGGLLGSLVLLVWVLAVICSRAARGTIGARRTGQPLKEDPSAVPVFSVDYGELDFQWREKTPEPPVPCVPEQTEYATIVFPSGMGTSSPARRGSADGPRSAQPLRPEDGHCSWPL

With Cc1cccc(C[C@@H]2NC(=O)[C@H](CC(=O)O)NC(=O)[C@H](Cc3ccc(OCC(=O)O)cc3)NC(=O)[C@H](CN)NC(=O)CSC[C@@H](C(=O)N[C@H](CO)C(=O)N[C@@H](CCC(=O)O)C(=O)NCCCCCCCCCCC(=O)O)NC(=O)[C@H]([C@@H](C)O)NC(=O)[C@H](C(C)C)NC(=O)[C@H](CC3CCCCC3)NC(=O)[C@H](CCN)NC(=O)[C@@H](CC(C)C)NC(=O)[C@H](CCCN)NC(=O)[C@H](CCCNC(N)=O)NC(=O)[C@H](Cc3ccc(-c4ccccc4)cc3)NC(=O)[C@H](C(C)C)NC2=O)c1 [Compound 2807] ({CH2CO}-[Dap]Y(Carboxymethyl)D[Phe(3-Me)]V[Bip][Cit][Orn][dL][Dab][Cha]VTC[dS]E[Aun]-OH; thioether N-14) the IC50 was 0.0165 µM.

Cc1cccc(C[C@@H]2NC(=O)[C@H](CC(=O)O)NC(=O)[C@H](Cc3ccc(OCC(=O)O)cc3)NC(=O)[C@H](CN)NC(=O)CSC[C@@H](C(=O)N(C)[C@H](C)C(=O)N[C@@H](CCC(=O)O)C(=O)NCCCCCCCCCCC(=O)O)NC(=O)[C@H]([C@@H](C)O)NC(=O)[C@H](C(C)C)NC(=O)[C@H](CC3CCCCC3)NC(=O)[C@H](CCN)NC(=O)[C@@H](CC(C)C)NC(=O)[C@H](CCCN)NC(=O)[C@H](CCCNC(N)=O)NC(=O)[C@H](Cc3ccc(-c4ccccc4)cc3)NC(=O)[C@H](C(C)C)NC2=O)c1 [Compound 2809] ({CH2CO}-[Dap]Y(Carboxymethyl)D[Phe(3-Me)]V[Bip][Cit][Orn][dL][Dab][Cha]VTC[dNMeA]E[Aun]-OH; thioether N-14) showed an IC50 of 0.18 µM.

Compound Cc1cccc(C[C@@H]2NC(=O)[C@H](CC(=O)O)NC(=O)[C@H](Cc3ccc(CCC(=O)O)cc3)NC(=O)[C@H](CN)NC(=O)CSC[C@@H](C(=O)N[C@@H](CCN)C(=O)N[C@@H](CO)C(=O)NCCCCCCCCCCC(=O)O)NC(=O)[C@H]([C@@H](C)O)NC(=O)[C@H](C(C)C)NC(=O)[C@H](CC3CCCCC3)NC(=O)[C@H](CCN)NC(=O)[C@@H](CC(C)C)NC(=O)[C@H](CCCN)NC(=O)[C@H](CCCNC(N)=O)NC(=O)[C@H](Cc3ccc(-c4ccccc4)cc3)NC(=O)[C@H](C(C)C)NC2=O)c1 [Compound 2811] ({CH2CO}-[Dap][Phe(4-CH2CH2COOH)]D[Phe(3-Me)]V[Bip][Cit][Orn][dL][Dab][Cha]VTC[Dab]S[Aun]-OH; thioether N-14) has an IC50 of 0.0341 µM.

Compound Cc1cccc(C[C@@H]2NC(=O)[C@H](CC(=O)O)NC(=O)[C@H](Cc3ccc(CCC(=O)O)cc3)NC(=O)[C@H](CN)NC(=O)CSC[C@@H](C(=O)N[C@@H](CCCN)C(=O)N[C@@H](CO)C(=O)NCCCCCCCCCCC(=O)O)NC(=O)[C@H]([C@@H](C)O)NC(=O)[C@H](C(C)C)NC(=O)[C@H](CC3CCCCC3)NC(=O)[C@H](CCN)NC(=O)[C@@H](CC(C)C)NC(=O)[C@H](CCCN)NC(=O)[C@H](CCCNC(N)=O)NC(=O)[C@H](Cc3ccc(-c4ccccc4)cc3)NC(=O)[C@H](C(C)C)NC2=O)c1 [Compound 2812] ({CH2CO}-[Dap][Phe(4-CH2CH2COOH)]D[Phe(3-Me)]V[Bip][Cit][Orn][dL][Dab][Cha]VTC[Orn]S[Aun]-OH; thioether N-14) has an IC50 of 0.024 µM.

Cc1cccc(C[C@@H]2NC(=O)[C@H](CC(=O)O)NC(=O)[C@H](Cc3ccc(CCC(=O)O)cc3)NC(=O)[C@H](CCCNC(=N)N)NC(=O)CSC[C@@H](C(=O)N[C@@H](CCN)C(=O)N[C@@H](CO)C(=O)NCCCCCCCCCCC(=O)O)NC(=O)[C@H](CCC(=O)O)NC(=O)[C@H](C(C)C)NC(=O)[C@H](CC3CCCCC3)NC(=O)[C@H](CCN)NC(=O)[C@@H](CC(C)C)NC(=O)[C@H](CCN)NC(=O)[C@H](CCCNC(N)=O)NC(=O)[C@H](Cc3ccc(-c4ccccc4)cc3)NC(=O)[C@H](C(C)C)NC2=O)c1 [Compound 2813] ({CH2CO}-R[Phe(4-CH2CH2COOH)]D[Phe(3-Me)]V[Bip][Cit][Dab][dL][Dab][Cha]VEC[Dab]S[Aun]-OH; thioether N-14) showed an IC50 of 0.181 µM.

Cc1cccc(C[C@@H]2NC(=O)[C@H](CC(=O)O)NC(=O)[C@H](Cc3ccc(CCC(=O)O)cc3)NC(=O)[C@H](CCCNC(=N)N)NC(=O)CSC[C@@H](C(=O)N[C@@H](CCCN)C(=O)N[C@@H](CO)C(=O)NCCCCCCCCCCC(=O)O)NC(=O)[C@H](CCC(=O)O)NC(=O)[C@H](C(C)C)NC(=O)[C@H](CC3CCCCC3)NC(=O)[C@H](CCN)NC(=O)[C@@H](CC(C)C)NC(=O)[C@H](CCN)NC(=O)[C@H](CCCNC(N)=O)NC(=O)[C@H](Cc3ccc(-c4ccccc4)cc3)NC(=O)[C@H](C(C)C)NC2=O)c1 [Compound 2814] ({CH2CO}-R[Phe(4-CH2CH2COOH)]D[Phe(3-Me)]V[Bip][Cit][Dab][dL][Dab][Cha]VEC[Orn]S[Aun]-OH; thioether N-14) was tested, and the IC50 was 0.0236 µM.

Compound CC(C)C[C@H]1NC(=O)[C@H](CCN)NC(=O)[C@H](CCCNC(N)=O)NC(=O)[C@H](Cc2ccc(-c3ccccc3)cc2)NC(=O)[C@H](C(C)C)NC(=O)[C@H](Cc2c[nH]c3ccccc23)NC(=O)[C@H](CC(=O)O)NC(=O)[C@H](Cc2ccc(OCC(=O)O)cc2)NC(=O)[C@H](CCCNC(=N)N)NC(=O)CSC[C@@H](C(=O)N[C@@H](CCCN)C(=O)NCCCCCCCCCCC(=O)O)NC(=O)[C@@H](CCC(N)=O)NC(=O)[C@H](C(C)C)NC(=O)[C@H](CC2CCCCC2)NC(=O)[C@H](CCN)NC1=O [Compound 2816] ({CH2CO}-RY(Carboxymethyl)DWV[Bip][Cit][Dab][dL][Dab][Cha]V[dQ]C[Orn][Aun]-OH; thioether N-14) has an IC50 of 0.0749 µM.

CC(C)C[C@H]1NC(=O)[C@H](CCN)NC(=O)[C@H](Cc2ccc(O)cc2)NC(=O)[C@H](Cc2ccc(-c3ccccc3)cc2)NC(=O)[C@H](C(C)C)NC(=O)[C@H](Cc2c[nH]c3ccccc23)NC(=O)[C@H](CC(=O)O)NC(=O)[C@H](Cc2ccc(OCC(=O)O)cc2)NC(=O)[C@H](CCCNC(=N)N)NC(=O)CSC[C@@H](C(=O)N[C@@H](CCCN)C(=O)NCCCCCCCCCCC(=O)O)NC(=O)[C@@H](CCC(N)=O)NC(=O)[C@H](C(C)C)NC(=O)[C@H](CC2CCCCC2)NC(=O)[C@H](CCN)NC1=O [Compound 2817] ({CH2CO}-RY(Carboxymethyl)DWV[Bip]Y[Dab][dL][Dab][Cha]V[dQ]C[Orn][Aun]-OH; thioether N-14) was tested, and the IC50 was 0.0471 µM.

Compound Cc1cccc(C[C@@H]2NC(=O)[C@H](CC(=O)O)NC(=O)[C@H](Cc3ccc(OCC(=O)O)cc3)NC(=O)[C@H](CCCNC(=N)N)NC(=O)CSC[C@@H](C(=O)N[C@@H](CCN)C(=O)NCCCCCCCCCCC(=O)O)NC(=O)[C@H](CCC(=O)O)NC(=O)[C@H](C(C)C)NC(=O)[C@H](CC3CCCCC3)NC(=O)[C@H](CCN)NC(=O)[C@@H](CC(C)C)NC(=O)[C@H](CCN)NC(=O)[C@H](Cc3ccc(O)cc3)NC(=O)[C@H](Cc3ccc(-c4ccccc4)cc3)NC(=O)[C@H](C(C)C)NC2=O)c1 [Compound 2818] ({CH2CO}-RY(Carboxymethyl)D[Phe(3-Me)]V[Bip]Y[Dab][dL][Dab][Cha]VEC[Dab][Aun]-OH; thioether N-14) has an IC50 of 0.0233 µM.

In the case of Cc1cccc(C[C@@H]2NC(=O)[C@H](CC(=O)O)NC(=O)[C@H](Cc3ccc(OCC(=O)O)cc3)NC(=O)[C@H](CCCNC(=N)N)NC(=O)CSC[C@@H](C(=O)N[C@@H](CCCN)C(=O)NCCCCCCCCCCC(=O)O)NC(=O)[C@H](CCC(=O)O)NC(=O)[C@H](C(C)C)NC(=O)[C@H](CC3CCCCC3)NC(=O)[C@H](CCN)NC(=O)[C@@H](CC(C)C)NC(=O)[C@H](CCN)NC(=O)[C@H](Cc3ccc(O)cc3)NC(=O)[C@H](Cc3ccc(-c4ccccc4)cc3)NC(=O)[C@H](C(C)C)NC2=O)c1 [Compound 2819] ({CH2CO}-RY(Carboxymethyl)D[Phe(3-Me)]V[Bip]Y[Dab][dL][Dab][Cha]VEC[Orn][Aun]-OH; thioether N-14), the IC50 is reported as 0.021 µM.
